Test results as given in patent US7879792B2, “Synthetic peptide inhibitors of thrombin and thrombin activation of protease activated receptors 1 and 4” (The Regents of the University of Michigan, priority 2005, dated 2011).
Where a SMILES comes first, the peptide text is derived from it.

Experiments:
[1] = rat intestinal in situ perfusion permeability; format: in vivo
Description: To determine the intestinal permeability of the various peptide analogs, male albino Sprague-Dawley rats, 9-10 weeks old and weighing 250-350 g were fasted for 18 hours with free access to water. The rats were anesthetized with an intramuscular injection of ketamine/xylazine/butorphanol (87 mg/kg, 6 mg/kg, and 0.2 mg/kg body weight, respectively). The abdomen was opened by a 4-5 cm midline incision and a 10 cm jejunal segment was cannulated on two ends and connected to a syringe pump that pumps the perfusing solution through the cannulated intestine at a constant rate and at a temperature of 37° C. The isolated segment was rinsed with 10 mM MES (pH 6.5) at a flow-rate of 0.5 ml/min in order to clean out any residual debris. Jejunal perfusion was subsequently performed with the same buffer containing 135 mM NaCl, 5 mM KCl and 0.01% PEG 4000 at a flow rate of 0.2 ml/min containing test compound, internal permeability reference standards (e.g., metoprolol) and ^14C-PEG 4000 as a non-absorbable marker for measuring water flux. After steady-state is reached within the perfused intestinal segment, typically 30 minutes after start of perfusion, samples were taken at 10 minute intervals for 1 hour. ^14C (PEG-4000) levels are assayed by scintillation counting and test compounds and internal permeability standard analysis by LC/MS/MS. Samples are frozen and stored at −80° C. until analysis.
The effective permeability (Peff) determined from the in situ perfusion is calculated from equation 1
[formula] where Q is the perfusion buffer flow rate, C′out is the outlet concentration of the compound that has been adjusted for water transport (equation 2) after passing through the intestinal segment, C′in is the inlet or starting concentration of the compound, R is the radius of the intestinal segment (set to 0.2 cm) and L is the length of the intestinal segment. To correct for water transport, a non-absorbed radioactive tracer, ^14C PEG-4000, is included in the perfusion buffer. The Cout/Cin ratio is corrected for water transport according to equation 2:
[formula] where Aout-A0 is equal to the radioactivity counts in the outlet sample minus background (dpm) and Ain-A0 is equal to the radioactivity counts in the inlet sample minus background (dpm).
In certain instances, in addition to perfusing the intestinal segment as described, plasma is drawn through a portal vein cannula to determine the amount of material entering the portal system during the perfusion. This additional experimental step can aid in determining the true intestinal permeability of unstable compounds. After steady state conditions are reached as described above, 0.5 ml aliquots of plasma are withdrawn from the portal vein at regular intervals throughout the experimental time frame. The plasma samples are deproteinated with acetonitrile and the sample is subjected to SPE and LC/MS analysis as described above. From the plasma concentration of compound, the mesenteric permeability can be determined by substitution into equation 3: Flux=A*Pe-mes*Ci 3) where Flux is equal to the portal blood flow (estimated at 1 ml/min in the rat)×the steady state mesenteric blood concentration of the peptide analogs, A is the absorptive area of the intestine (estimated at 12.56 cm^2 in the rat intestine), Pe-mes is the mesenteric Permeability (cm/sec), and Ci is the starting concentration of drug in the perfusate (ug/ml).

[2] = test system: normal human lung fibroblasts (NHLF); assay: α-thrombin-induced calcium mobilization in normal human lung fibroblasts; format: cell-based; settings: 2 nM alpha thrombin
Description: The second assay developed to assess peptides from the combinatorial libraries uses inhibition of α-thrombin-induced calcium mobilization in fibroblasts. Normal human lung fibroblasts (NHLF) were purchased from Clonetics, San Diego, Calif., an affiliate of Bio-Wittaker, Walkersville, Md. The cytoplasmic free Ca^2+ concentration ([Ca^2+]i) was measured using the fluorescent Ca^2+ indicator fura-2 (Molecular Probes, Inc., Eugene, Oreg.). Suspension of fibroblasts in Hepes-Tyrode's buffer were loaded with fura-2 by incubation at 37° C. with 2 μM fura-2/acetoxymethyl ester for 45 minutes according to the method of Rasmussen et al., J. Biol. Chem. 268, 14322 (1993). The labeled fibroblasts were separated from excess probe by washing by centrifugation at 1000 rpm (180 xg). Aliquots of the labeled fibroblasts were transferred into a quartz cuvette with a magnetic stirrer, which was then placed in a thermostatically controlled chamber at 37° C. in a fluorescence spectrophotometer (Perkin-Elmer LS50B spectrofluorometer, Chicago, Ill.). Reagents, test peptide, and α-thrombin (0.25-2 nM), were sequentially added directly to the cuvette. The excitation wavelengths varied between 340 and 380 nm. Fluorescence was measured by recording emitted light at 510 nm as reported by Fisher et al., Mol Pharm. 35, 195 (1989). The minimum emission was determined on a solubilized fibroblast sample in the presence of 10 mM EDTA; maximum emission was determined on the same sample with 10 mM Ca^2+ added. The intrafibroblast free Ca^2+ concentration was calculated by the method of Grykiewicz et al., J. Biol. Chem. 260, 3440 (1985). The ratio of the fluorescence readings was calculated as R=340/380 nm and processed according to the equation [Ca^2+]i=KD((R−Rmin)/Rmax−R))(Sf2/Sb2) to determine the intrafibroblast free Ca^2+ concentration. The KD for fura-2 was assumed to be 224 nM. Rmax and Rmin are the maximum and minimum fluorescence ratios measured at the end of the experiment, respectively; Sf2 and Sb2 are the fluorescence values at 380 nm in the absence and presence of saturating [Ca^2+], respectively. The reaction was monitored for 3-5 minutes.

[3] = test system: normal human citrated plasma; assay: prothrombin time (PT); format: biochemical
Description: (§1) The influence of the various peptide formulations used in the present invention on established coagulation-based assays was determined. The activated partial thromboplastin time (APTT) is performed by mixing 0.05 ml normal human citrated plasma with 0.05 ml activated partial thromboplastin reagent purchased from Organon Teknika, Research Triangle Park, NC in the absence or presence of a peptide inhibitor. After incubation for 5 min at 37° C., the mixture is recalcified with 0.05 ml of 30 mM calcium chloride and the time to clot formation is measured in an Amelung KC4A instrument (Sigma Chemical Corp, St. Louis, Mo.) (Hasan et al. Thrombosis and Haemostasis. 82, 1182-1187 (1999)). The prothrombin time (PT) is performed by mixing 0.05 ml normal human citrated plasma with 0.05 ml Simplastin (Organon Teknika, Research Triangle Park, NC) followed by incubation for 3 min at 37° C. in the absence or presence of a peptide inhibitor. At the addition of 0.05 ml of 30 mM calcium chloride, the time to clot formation is measured in an KC4A instrument (Sigma Chemical Corp, St. Louis, Mo.) (Hasan et al. Thrombosis and Haemostasis. 82, 1182-1187 (1999)). The thrombin clotting time (TCT) is performed by adding 0.1 ml normal human citrated plasma in the absence or presence of a peptide inhibitor and 0.05 ml of a α-thrombin solution such that the final concentration of the thrombin in the entire mixture was 1 nM. Upon addition of the thrombin, the time to clot formation is measured in an KC4A instrument (Sigma Chemical Corp, St. Louis, Mo.).

[4] = test system: normal human citrated plasma; assay: thrombin clotting time (TCT); format: biochemical; settings: 1 nM thrombin
Description: as §1

Row | SMILES | Permeability (in situ) (cm/sec) ([1]; rat jejunal in situ perfusion) | Papp ([1]; rat, from portal vein plasma during perfusion, read-out: Permeability (mesenteric)) [×10⁻⁶ cm/s] | alpha thrombin-induced calcium mobilization ([2]; 0.00038 mM peptide) | inhibition of thrombin-induced calcium mobilization ([2]; 0.003 mM peptide) [%] | inhibition of thrombin-induced calcium mobilization ([2]; 0.08 mM peptide) [%] | peptide concentration with significant prolongation (p<0.05) of the PT [3] [µM] | peptide concentration with significant prolongation (p<0.05) of the TCT [4] [µM]
1 | N=C(N)NCCC[C@@H](N)C(=O)N1[C@H](C(=O)N2CCC[C@H]2C(=O)NCC(=O)N[C@@H](Cc2ccccc2)C(N)=O)C[C@@H]2CCCC[C@@H]21 [rOicPGF, D-Arg-Oic-Pro-Gly-Phe, reference compound] (HELM PEPTIDE1{[dR].[O=C([C@@H]1C[C@@H]2CCCC[C@@H]2N1[*:1])[*:2]].P.G.F.[am]}$$$$V2.0) | Degraded | 0.451 | – | – | – | – | –
2 | Cc1ccc(C[C@H](NC(=O)[C@@H](C)NC(=O)[C@@H]2CCCN2C(=O)[C@@H]2C[C@@H]3CCCC[C@@H]3N2C(=O)[C@H](N)CCCNC(=N)N)C(N)=O)cc1 [rOicPaF(p-Me), D-Arg-Oic-Pro-D-Ala-Phe(p-Me)] (HELM PEPTIDE1{[dR].[O=C([C@@H]1C[C@@H]2CCCC[C@@H]2N1[*:1])[*:2]].P.[dA].[Cc1ccc(C[C@H](N[*:1])C(=O)[*:2])cc1].[am]}$$$$V2.0) | – | – | full recovery | 69 | 97 | 1.56 | 0.78
